Publication PMC5048337 (2016)

What was measured:
[1] = system: bcl2 (FAM/TAMRA) (DNA, G4) AGGGGCGGGCGCGGGAGGAAGGGGGCGGGAGCGGGGCTG; assay: FRET melting; conditions: 60 mM potassium cacodylate; pH 7.4; 1 μM compound, 0.2 μM oligonucleotide
[2] = system: c-Kit1 (FAM/TAMRA) (DNA, G4) AGGGAGGGCGCTGGGAGGAGGG; assay: FRET melting; conditions: 60 mM potassium cacodylate; pH 7.4; 1 μM compound, 0.2 μM oligonucleotide
[3] = system: h-TERT (FAM/TAMRA) (DNA, G4) GGGGGCTGGGCCGGGGACCCGGGAGGGGTCGGGACGGGGCGGGG; assay: FRET melting; conditions: 60 mM potassium cacodylate; pH 7.4; 1 μM compound, 0.2 μM oligonucleotide
[4] = system: bcl2 (DNA, G4) AGGGGCGGGCGCGGGAGGAAGGGGGCGGGAGCGGGGCTG; assay: UV-Vis titration, intrinsic method (Rodger and Nordén); conditions: K+ 100 mM (KCl); 50 mM Tris-HCl, pH 7.5, 25 °C
[5] = system: bcl2 (DNA, G4) AGGGGCGGGCGCGGGAGGAAGGGGGCGGGAGCGGGGCTG; assay: UV-Vis titration, reciprocal plot (Wolfe); conditions: K+ 100 mM (KCl); 50 mM Tris-HCl, pH 7.5, 25 °C
[6] = system: h-TERT (DNA, G4) GGGGGCTGGGCCGGGGACCCGGGAGGGGTCGGGACGGGGCGGGG; assay: UV-Vis titration, reciprocal plot (Wolfe); conditions: K+ 100 mM (KCl); 50 mM Tris-HCl, pH 7.5, 25 °C
[7] = system: c-Kit1 (DNA, G4) AGGGAGGGCGCTGGGAGGAGGG; assay: UV-Vis titration, intrinsic method (Rodger and Nordén); conditions: K+ 100 mM (KCl); 50 mM Tris-HCl, pH 7.5, 25 °C
[8] = system: c-Kit1 (DNA, G4) AGGGAGGGCGCTGGGAGGAGGG; assay: UV-Vis titration, reciprocal plot (Wolfe); conditions: K+ 100 mM (KCl); 50 mM Tris-HCl, pH 7.5, 25 °C
[9] = system: h-TERT (DNA, G4) GGGGGCTGGGCCGGGGACCCGGGAGGGGTCGGGACGGGGCGGGG; assay: UV-Vis titration, intrinsic method (Rodger and Nordén); conditions: K+ 100 mM (KCl); 50 mM Tris-HCl, pH 7.5, 25 °C

**Q.** Which results are given for CC[N+](CC)(CC)Cc1ccc([O-])c(C=NCCN=Cc2cc(C[N+](CC)(CC)CC)ccc2[O-])c1.[Cu+2]?
**A.** binding [1]: yes; binding [2]: yes; binding [3]: yes

**Q.** For CC[N+](CC)(CC)Cc1ccc([O-])c(C=NCCN=Cc2cc(C[N+](CC)(CC)CC)ccc2[O-])c1.[Ni+2], which K b [4] is on record?
**A.** (3.4 ± 0.3) × 10^4 M^–1

**Q.** And the K b [5]?
**A.** (2.0 ± 0.4) × 10^5 M^–1

**Q.** And the binding [1]?
**A.** yes

**Q.** And the binding [2]?
**A.** yes

**Q.** What about the K b [6] of the same compound?
**A.** (1.1 ± 0.1) × 10^5 M^–1

**Q.** What about the K b [7] of the same compound?
**A.** (4.9 ± 0.3) × 10^4 M^–1

**Q.** And the K b [8]?
**A.** (2.4 ± 0.5) × 10^5 M^–1

**Q.** What about the binding [3] of the same compound?
**A.** yes

**Q.** And the K b [9]?
**A.** (3.7 ± 0.4) × 10^4 M^–1
